Results as given in EP0403366A2, “Cyclomalto-oligosaccharide derivatives and processes for their preparation” (priority 1989, dated 1990).
≈ marks a conversion by molar mass, not a printed value.

Legend:
[1] = Solubility of apolar solutes in aqueous cyclomalto-oligosaccharide solutions (inclusion complexes); assay type: physicochemical
[2] = physchem; conditions: water
[3] = Apparent stability constant of inclusion complexes; conditions: in words, complexes with the new derivatives compared with the corresponding cyclomaltoheptaose (CG₇) complexes
[4] = Solubility in water; conditions: in words, compared with cyclomaltoheptaose (CG₇)

SMILES | solubility [2] [mg/mL] | constantes de stabilité apparente des complexes [3] | solubilité dans l'eau [4] | also measured
Oc1ccc2ccccc2c1 [2-naphtol] | – | ne sont pas notablement modifiées | – | –
C[C@]12CCC(=O)C=C1CC[C@@H]1[C@@H]2[C@@H](O)C[C@@]2(C)[C@H]1CC[C@]2(O)C(=O)CO [Hydrocortisone] | – | ne sont pas notablement modifiées | – | –
OC[C@H]1O[C@H](SC[C@H]2O[C@@H]3O[C@H]4[C@H](O)[C@@H](O)[C@@H](O[C@H]5[C@H](O)[C@@H](O)[C@@H](O[C@H]6[C@H](O)[C@@H](O)[C@@H](O[C@H]7[C@H](O)[C@@H](O)[C@@H](O[C@H]8[C@H](O)[C@@H](O)[C@@H](O[C@H]9[C@H](O)[C@@H](O)[C@@H](O[C@H]2[C@H](O)[C@H]3O)O[C@@H]9CO)O[C@@H]8CO)O[C@@H]7CO)O[C@@H]6CO)O[C@@H]5CO)O[C@@H]4CO)[C@H](O)[C@@H](O)[C@@H]1O [Composé 1, 6-S-alpha-D-glucopyranosyl-6-thio-cyclomaltoheptaose] | 430 (≈ 327 mM) | – | améliorée par rapport à celle du CG₇ | –

More lines, main results first:

solubility [2] [mg/mL] | SMILES | constantes de stabilité apparente des complexes [3] | solubilité dans l'eau [4] | also measured
0.012 (≈ 0.039 mM) | Cc1cccc(N(C)C(=S)Oc2ccc3ccccc3c2)c1 [Tolnaftate, O-2-Naphtyl-méthyl-(3-méthylphényl)-carbomothioate] | – | – | Solubilité ([1]; Solution aqueuse à 1,7.10^-2 mol/l de CG7): 840 µg/mL; Solubilité ([1]; Solution aqueuse à 3,10^-2mol/l de composé n°1): 52 690 µg/ml; Solubilité ([1]; Solution aqueuse à 3,10^-2 mol/l de composé n° 2): 37 090 µg/ml
30 (≈ 22.8 mM) | OC[C@H]1O[C@@H](SC[C@H]2O[C@@H]3O[C@H]4[C@H](O)[C@@H](O)[C@@H](O[C@H]5[C@H](O)[C@@H](O)[C@@H](O[C@H]6[C@H](O)[C@@H](O)[C@@H](O[C@H]7[C@H](O)[C@@H](O)[C@@H](O[C@H]8[C@H](O)[C@@H](O)[C@@H](O[C@H]9[C@H](O)[C@@H](O)[C@@H](O[C@H]2[C@H](O)[C@H]3O)O[C@@H]9CO)O[C@@H]8CO)O[C@@H]7CO)O[C@@H]6CO)O[C@@H]5CO)O[C@@H]4CO)[C@H](O)[C@@H](O)[C@@H]1O [Composé 2, 6-S-bêta-D-glucopyranosyl-6-thio-cyclomaltoheptaose] | – | très améliorée par rapport à celle du cyclomaltoheptaose | –
